Reference: patent US20140120075A1, “Nanozyme Compositions and Methods of Synthesis and Use Thereof” (Board of Regents of the University of Nebraska, priority 2011, published 2014)

Key:
[1] = target: Catalase (from bovine liver), DTSSP cross-linked cl-nanozyme with PEG-pLL50, non-purified (C2) (Bos taurus, UniProt P00432)
Method: (§1) SOD1 (from bovine erythrocytes), hydrogen peroxide (H2O2), 2,3,5-triphenyltetrazolium chloride (TTC) and copper standards for Inductively Coupled Plasma Mass Spectroscopy (ICP-MS)—TraceCERT®, 1000 mg/L Cu in nitric acid) were from Sigma-Aldrich (St. Louis, Mo.). Catalase (from bovine liver) was from Calbiochem (Gibbstown, N.J.). PEG-pLL50 was from Alamanda Polymers™ (Huntsville, Ala.). […] Cross-linkers 3,3′-dithiobis(sulfosuccinimidylpropionate) (DTSSP) and bis(sulfosuccinimidyl)suberate (BS^3) were from Thermo Fisher Scientific (Rockford, Ill.). NAP™ desalting columns and HiPrep 16/60 Sephacryl S-400 HR column were from GE Healthcare (Piscataway, N.J.). Criterion Tris-HCl gels and Precision Plus Protein™ All Blue Standards were from Bio-Rad (Hercules, Calif.). SYPRO® Ruby protein gel stain and cell culture reagents were purchased from Invitrogen (Carlsbad, Calif.). CellTiter 96® AQueous One Solution Cell Proliferation Assay (MTS) was from Promega (Madison, Wis.). LumiMax Superoxide Anion Detection Kit was from Agilent Technologies, Inc. (Santa Clara, Calif.). All other reagents and supplies were from Fisher Scientific (Pittsburgh, Pa.) unless noted otherwise.
(§2) Enzyme and polymer stock solutions were prepared in 10 mM HEPES (pH 7.4) and 10 mM HEPES-buffered saline (HBS; pH 7.4) for SOD1 and catalase, respectively. Non-cross-linked BICs (Z+/−=2) were prepared as described (Klyachko et al. (2012) Nanomed. Nanotechnol. Biol. Med., 8:119-129). Targeted degree of cross-linking was defined as the molar ratio between cross-linker (DTSSP/BS^3) and pLL amines. Precalculated amount of the respective cross-linker was dissolved in the reaction buffer (HEPES/HBS), quickly added to BICs, and the reaction mixture was briefly vortexed and incubated for 2 hours on ice. Unreacted crosslinker was desalted using NAP™ columns following manufacturer's instructions. Cl-Nanozymes were purified using size exclusion chromatography (SEC) (small/intermediate scale) or centrifugal filtration (large scale). SEC was carried out using an ÄKTA™ Fast Protein Liquid Chromatography (FPLC) (Amersham Biosciences, Piscataway, N.J.) system. DTSSP cl-nanozymes were lyophilized overnight, reconstituted in deionized water (DW), loaded onto a HiPrep 16/60 Sephacryl™ S-400 HR column and eluted using 10 mM HBS (pH 7.4) at a flow rate of 0.5 mL/minute. Prior to each experiment, the column was pre-conditioned with free block copolymer (PEG-pLL50) to minimize non-specific adsorption of the cl-nanozymes (Boeckle et al. (2004) J. Gene Med., 6:1102-1111). Fractions spanning each distinct peak were pooled, concentrated using Amicon® Ultra-4 Centrifugal Filter Units with a molecular weight cutoff (MWCO) of 3000 Da and desalted using NAP™ columns as needed. Protein concentration was determined using Micro BCA™ Protein Assay Kit. In large-scale preparations, clnanozymes were purified by centrifugal filtration using Macrosep™ Centrifugal Device (Pall Life Sciences, Ann Arbor, Mich.) with a MWCO of either 100 kDa (for SOD1) or 1000 kDa (for catalase). Briefly, unreacted cross-linker in cross-linked BICs was desalted using NAP™ columns and eluate was collected in 10 mM HEPES containing 0.3 M NaCl (pH 7.4). Samples were loaded onto the centrifugal device and concentrated to 10% original volume by centrifuging at 4500 RPM. Two rounds of purification were done in 10 mM HEPES buffer containing 0.3 M NaCl (pH 7.4) and the third round was done in 10 mM HEPES buffer (pH 7.4). […]

[2] = target: Catalase (from bovine liver), DTSSP cross-linked cl-nanozyme with PEG-pLL50, purified (C2p) (Bos taurus, UniProt P00432)
Method: as §1, §2

[3] = target: Catalase (from bovine liver), native (nC) (Bos taurus, UniProt P00432); settings: 50 mM phosphate buffer pH 7.4
Method: as §1

Catalase (from bovine liver), DTSSP cross-linked cl-nanozyme with PEG-pLL50, purified (C2p), sequence (P00432 whole entry): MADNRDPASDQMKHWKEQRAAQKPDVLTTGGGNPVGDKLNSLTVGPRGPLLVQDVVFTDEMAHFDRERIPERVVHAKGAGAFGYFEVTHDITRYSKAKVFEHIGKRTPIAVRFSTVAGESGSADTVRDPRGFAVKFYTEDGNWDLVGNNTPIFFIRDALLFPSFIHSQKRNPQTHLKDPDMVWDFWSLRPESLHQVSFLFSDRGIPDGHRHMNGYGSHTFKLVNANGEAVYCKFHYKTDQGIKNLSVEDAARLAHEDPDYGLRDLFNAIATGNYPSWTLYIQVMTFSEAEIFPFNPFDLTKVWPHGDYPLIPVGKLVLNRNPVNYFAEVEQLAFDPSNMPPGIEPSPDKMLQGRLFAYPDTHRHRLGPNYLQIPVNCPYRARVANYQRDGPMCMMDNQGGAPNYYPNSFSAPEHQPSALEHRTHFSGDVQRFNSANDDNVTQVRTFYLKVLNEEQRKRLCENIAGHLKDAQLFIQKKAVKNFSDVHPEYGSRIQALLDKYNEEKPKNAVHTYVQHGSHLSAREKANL
Catalase (from bovine liver), DTSSP cross-linked cl-nanozyme with PEG-pLL50, non-purified (C2), sequence (P00432 whole entry): as above
Catalase (from bovine liver), native (nC), sequence (P00432 whole entry): as above

Compound: OO [H2O2, hydrogen peroxide]
- Kcat/Km ([1]; 50 mM phosphate buffer pH 7.4, C2): 1.66e+07 M⁻¹ s⁻¹
- increase in Km value ([1]; non-purified cl-nanozyme (C2) compared to native catalase (nC)): ca. 1.8 fold
- Kcat/Km ([2]; 50 mM phosphate buffer pH 7.4, C2p): 7.75e+06 M⁻¹ s⁻¹
- catalytic efficiency (kcat/Km), per cent lower than nC ([2]; purified cl-nanozyme (C2p) compared to native enzyme (nC)): ca. 48%
- catalytic efficiency (kcat/Km), per cent lower than C2 ([2]; purified cl-nanozyme (C2p) compared to non-purified (C2)): ~53%
- Kcat/Km [3]: 1.5e+07 M⁻¹ s⁻¹
